According to patent publication US5625043A, “Anthracyclines with unusually high activity against cells resistant to doxorubicin and its analogs” (Priebe; Waldemar, priority 1995, dated 1997):

Legend:
[1] = test system: transplanted MDR L1210 cells; details: cited from earlier work
[2] = test system: RNA versus DNA synthesis; details: compared with anthracycline; cited from earlier work
[3] = test system: cultured murine and human tumor cells; details: compared with anthracycline; cited from earlier work
[4] = test system: membrane; details: compared with anthracycline; cited from earlier work
[5] = test system: variant CCRF-CEM leukemic cells; details: cited from earlier work
[6] = test system: J7/A300 cells; assay: Cytotoxicity against AD 198-resistant J7/A300 cells; type: cell-based, murine
[7] = test system: MDR J774.2 cells selected with vinblastine; details: MDR J774.2 selected with vinblastine; cited from earlier work
[8] = test system: DNA; details: alkaline elution assays; cited from earlier work
[9] = test system: AD 198^R cells; details: AD 198^R cells versus drug-sensitive cells; cited from earlier work
[10] = test system: purified DNA; details: compared with anthracycline; cited from earlier work
[11] = test system: G2/M blockade; details: compared with anthracycline; cited from earlier work
[12] = test system: P388 and L1210 leukemic cells and B16-BL6 melanoma cells; details: cited from earlier work
[13] = test system: purified mammalian topoisomerase II; details: cited from earlier work
[14] = test system: J774.2 cells; assay: Cytotoxicity against J774.2 cells; type: cell-based, murine; details: Mus musculus, J774.2; read-out: ID50 (the source's name)
[15] = test system: J7/40V cells; assay: Cytotoxicity against vinblastine-resistant J7/40V cells; type: cell-based, murine
[16] = test system: P-gp; details: not told; cited from earlier work

## CCCCC(=O)OCC(=O)[C@]1(O)Cc2c(O)c3c(c(O)c2[C@@H](O[C@H]2C[C@H](NCc4ccccc4)[C@H](O)[C@H](C)O2)C1)C(=O)c1c(OC)cccc1C3=O [AD 198]
[1]
  efficacy in vivo: limited efficacy
[2]
  inhibition of RNA versus DNA synthesis: preferential inhibition of RNA versus DNA synthesis
[3]
  cytotoxicity: enhanced cytotoxicity
[4]
  membrane lytic activity: pronounced membrane lytic activity
[5]
  ability to circumvent MDR and resistance due to altered topoisomerase II activity: ability to circumvent MDR
[6]; AD 198 resistant J7/A300 cells
  resistance of cell line to the selecting drug: 15 -fold
[6]; J7/A300 versus J774.2
  RI J7/A300: 15
[6]; Mus musculus, J7/A300, read-out: ID50 (the source's name)
  IC50: 0.748 µM
[7]
  cross-resistance: cross-resistant to AD 198
[8]
  protein-associated DNA strand breaks: significant levels of protein-associated DNA strand breaks
[9]
  intracellular level of AD 198: high levels of intracellular AD 198 similar to that of drug-sensitive cells
[10]
  binding to purified DNA: weaker binding to purified DNA
[11]
  G2/M blockade: irreversible G2 /M blockade
[12]
  ability to circumvent MDR: ability to circumvent MDR
[13]
  inhibition of purified mammalian topoisomerase II: lack of inhibition
[14]
  IC50: 0.049 µM
[15]; J7/40V versus J774.2
  RI J7/40V: 14
[15]; Mus musculus, J7/40V, read-out: ID50 (the source's name)
  IC50: 0.663 µM
[16]
  transport by P-gp from the cell: inability of P-gp to transport AD 198 from the cell
